# Measurements: patent publication US20230365602A1, “COMPOUND FOR USE IN THE TREATMENT OF PROTOZOAL DISEASES AND PROCESS FOR PRODUCTION OF SAID COMPOUND” (QUADREL S.R.L., priority 2020, published 2023)
# Values joined by “and” are separate entries in the source; they are usually repeats but may differ in a detail not shown here. Identical values can stand only once. Like-named read-outs stand apart in the source and are kept apart here.
# Experiments:
# [1] = Cytotoxicity, Human Monocytic Cell Line THP1; assay type: cell-based
# Source text: (§1) The in vitro antiparasitic activity of compound 5-cyclopentadecylpentyl (2-(trimethylammonio)ethyl) phosphate (19) against L. infantum (2 species), L. amazonensis, L. donovani and L. major is presented in Table 3, as well as the toxicity against the human monocytic cell Line THP1 and PMA-differentiated THP-1 cells.
# mitochondria = test: Early toxicity: mitochondrial toxicity; assay type: cell-based; settings: for Ang % Toxicity Mitochondria: Table 5
# Leishmania infantum [2] = test: Efficacy in mice infected with Leishmania infantum, 21-day treatment, limiting dilution assay; assay type: in vivo, BALB/c mice
# Experimental: The rationale for the choice of four doses was to enable dose dependent information in activity and toxicity. The wait period of 15 days after treatment end enabled the follow up of reappearance of infection and also the determination of the time dependent compound elimination. […] Three days after the last treatment the mice were euthanized and parasite burden (log number of parasites/mg of organ) was evaluated by limiting dilution assay, essentially as described in Tavares. J. et al (Methods Mol Biol, 2019; 1971:289-301), in the spleen (FIG. 2B) and in the liver (FIG. 2C). Data represent the mean±SD, *p<0.05, **p<0.01 (One way ANOVA with Dunnett's test) in comparison with the untreated group.
# [3] = test system: L. major SASKH intracellular amastigotes; test: Anti-leishmanial activity, L. major intracellular amastigotes; assay type: cell-based; settings: Leishmania major; read-out: L. major SASKH intracellular amastigotes IC50 ± SEM
# Source text: as §1
# T. b. brucei GVR35 = test: Stage II HAT mice model, live imaging; assay type: in vivo
# HDAC8 = HDAC8 (Homo sapiens, UniProt Q9BY41); test: HDAC8 activity inhibition; assay type: biochemical
# Leishmania infantum [4] = test: Efficacy in mice infected with Leishmania infantum, 10-day treatment; assay type: in vivo, BALB/c mice; settings: 10 consecutive days; for parasite burden in the spleen: 20 mg/kg and 10 mg/kg
# Experimental: (A) Experimental approach; (B) and (C) are graphic presentations of parasite burden in the spleen and the liver, respectively, evaluated by limiting dilution assay.
# The treatments were reduced to 10 consecutive days at doses of 2.5, 5, 10 or 20 mg/Kg/day (FIG. 3).
# [5] = test system: L. donovani 1SR intracellular amastigotes; test: Anti-leishmanial activity, L. donovani intracellular amastigotes; assay type: cell-based; settings: Leishmania donovani; read-out: L. donovani 1SR intracellular amastigotes IC50 ± SEM
# Source text: as §1
# [6] = test system: L. amazonensis intracellular amastigotes; test: Anti-leishmanial activity, L. amazonensis intracellular amastigotes; assay type: cell-based; settings: Leishmania amazonensis
# Source text: as §1
# [7] = Snapshot pharmacokinetics in plasma after oral gavage; assay type: in vivo, mice
# Experimental: Pharmacology of 5-cyclopentadecylpentyl (2-(trimethylammonio)ethyl) phosphate (19) in mice.
# Blood samples were collected from the tail vein at 0, 0.5, 0.75, 1, 3, 24 and 72 hours into heparinized tubes. Moreover, biodistribution of the molecule, 72h after administration, was determined in several organs of the treated mice, namely brain, liver, spleen, kidney, heart and bone marrow. […] J Chromatogr B, 865: 55-62) by liquid chromatography mass spectrometry (LC-MS/MS).
# CYP2C19 = CYP2C19 (Homo sapiens, UniProt P33261); test: Early toxicity: CYP2C19 inhibition; assay type: in vitro ADME; settings: human, mean ± SD, Table 4a
# CYP2C9 = CYP2C9 (Homo sapiens, UniProt P11712); test: Early toxicity: CYP2C9 inhibition; assay type: in vitro ADME
# [8] = Apparent solubility by nephelometry; assay type: physicochemical; settings: kinetic from dmso stock
# [9] = Maximum tolerated dose and dose range finding, 7 days oral gavage; settings: for average weight loss at the end of the experiment: 7 days; for MTD at 7 days: BALB/c, mouse, in vivo, oral
# Source text: The primary objective of the dose range finding study is to establish the maximum tolerated dose (MTD) as determined by parameters such as clinical signs and reductions in body weight and food consumption, and to provide the data for appropriate dose selection in subsequent regulatory toxicology studies.
# CYP3A4 = CYP3A4 (Homo sapiens, UniProt P08684); test: Early toxicity: CYP3A4 inhibition; assay type: in vitro ADME; settings: human, 10 μM
# HDAC6 = HDAC6 (Homo sapiens, UniProt Q9UBN7); test: HDAC6 activity inhibition; assay type: biochemical
# [10] = Table 5, read-out: Avg % inhibition CYP3A4
# [11] = mean ± SD, Table 4a, read-out: % inhibition CYP3A4
# [12] = BALB/c (Compound 19), NMRI (miltefosine), mouse, in vivo, po, 20 mg/kg
# [13] = BALB/c, mouse, in vivo, po, 20 mg/kg
# Chain of CYP3A4 (P08684 whole entry): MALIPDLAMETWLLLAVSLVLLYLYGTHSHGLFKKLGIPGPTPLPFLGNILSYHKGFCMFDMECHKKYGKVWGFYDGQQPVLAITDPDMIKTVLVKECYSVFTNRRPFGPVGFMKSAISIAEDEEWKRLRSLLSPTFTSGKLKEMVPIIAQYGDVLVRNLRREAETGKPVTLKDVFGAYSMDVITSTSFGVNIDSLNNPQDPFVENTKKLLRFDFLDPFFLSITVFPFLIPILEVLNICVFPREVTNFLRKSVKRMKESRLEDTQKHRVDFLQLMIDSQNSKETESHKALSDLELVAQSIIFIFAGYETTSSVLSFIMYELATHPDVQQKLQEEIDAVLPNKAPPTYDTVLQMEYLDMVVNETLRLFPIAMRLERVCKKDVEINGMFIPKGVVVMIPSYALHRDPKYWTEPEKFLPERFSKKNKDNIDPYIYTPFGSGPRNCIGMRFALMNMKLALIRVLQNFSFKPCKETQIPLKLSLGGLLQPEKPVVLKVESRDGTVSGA
# Chain of CYP2C9 (P11712 whole entry): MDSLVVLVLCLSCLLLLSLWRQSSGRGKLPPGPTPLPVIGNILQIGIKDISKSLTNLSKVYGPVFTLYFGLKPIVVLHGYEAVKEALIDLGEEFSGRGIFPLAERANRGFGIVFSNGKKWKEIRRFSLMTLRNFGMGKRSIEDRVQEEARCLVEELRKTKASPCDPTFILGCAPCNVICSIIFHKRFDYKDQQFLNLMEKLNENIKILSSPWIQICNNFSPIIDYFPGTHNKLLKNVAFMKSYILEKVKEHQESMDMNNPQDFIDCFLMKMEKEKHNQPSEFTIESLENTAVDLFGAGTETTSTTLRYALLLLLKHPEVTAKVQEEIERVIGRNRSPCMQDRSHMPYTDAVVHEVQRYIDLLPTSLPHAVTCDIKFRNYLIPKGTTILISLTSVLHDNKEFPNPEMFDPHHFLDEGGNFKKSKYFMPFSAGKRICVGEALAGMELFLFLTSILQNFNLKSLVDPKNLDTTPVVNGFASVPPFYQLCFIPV
# Chain of HDAC8 (Q9BY41 whole entry, species assumed): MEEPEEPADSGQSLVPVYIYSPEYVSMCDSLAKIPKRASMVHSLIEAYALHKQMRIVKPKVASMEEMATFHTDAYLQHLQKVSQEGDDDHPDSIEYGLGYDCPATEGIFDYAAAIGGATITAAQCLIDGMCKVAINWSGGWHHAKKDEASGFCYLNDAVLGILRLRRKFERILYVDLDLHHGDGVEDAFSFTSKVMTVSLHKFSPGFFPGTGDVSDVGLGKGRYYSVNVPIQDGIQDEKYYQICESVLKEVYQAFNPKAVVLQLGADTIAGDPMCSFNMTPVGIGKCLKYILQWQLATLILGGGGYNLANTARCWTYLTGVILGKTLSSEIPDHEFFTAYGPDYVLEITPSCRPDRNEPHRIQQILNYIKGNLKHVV
# Chain of CYP2C19 (P33261 whole entry): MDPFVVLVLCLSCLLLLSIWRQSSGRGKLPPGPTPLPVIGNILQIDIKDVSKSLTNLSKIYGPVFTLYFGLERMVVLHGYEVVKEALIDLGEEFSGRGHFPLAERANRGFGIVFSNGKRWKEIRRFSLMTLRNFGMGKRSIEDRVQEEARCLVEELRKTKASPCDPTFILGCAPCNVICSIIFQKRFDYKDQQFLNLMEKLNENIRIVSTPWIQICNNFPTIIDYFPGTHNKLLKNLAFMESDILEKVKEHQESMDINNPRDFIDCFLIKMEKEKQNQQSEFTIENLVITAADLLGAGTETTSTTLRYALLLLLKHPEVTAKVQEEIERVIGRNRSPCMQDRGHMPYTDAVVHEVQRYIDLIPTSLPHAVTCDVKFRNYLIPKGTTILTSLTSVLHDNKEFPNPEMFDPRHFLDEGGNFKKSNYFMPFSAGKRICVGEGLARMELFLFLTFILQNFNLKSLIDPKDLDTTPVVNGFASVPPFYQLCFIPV
# Chain of HDAC6 (Q9UBN7 whole entry, species assumed): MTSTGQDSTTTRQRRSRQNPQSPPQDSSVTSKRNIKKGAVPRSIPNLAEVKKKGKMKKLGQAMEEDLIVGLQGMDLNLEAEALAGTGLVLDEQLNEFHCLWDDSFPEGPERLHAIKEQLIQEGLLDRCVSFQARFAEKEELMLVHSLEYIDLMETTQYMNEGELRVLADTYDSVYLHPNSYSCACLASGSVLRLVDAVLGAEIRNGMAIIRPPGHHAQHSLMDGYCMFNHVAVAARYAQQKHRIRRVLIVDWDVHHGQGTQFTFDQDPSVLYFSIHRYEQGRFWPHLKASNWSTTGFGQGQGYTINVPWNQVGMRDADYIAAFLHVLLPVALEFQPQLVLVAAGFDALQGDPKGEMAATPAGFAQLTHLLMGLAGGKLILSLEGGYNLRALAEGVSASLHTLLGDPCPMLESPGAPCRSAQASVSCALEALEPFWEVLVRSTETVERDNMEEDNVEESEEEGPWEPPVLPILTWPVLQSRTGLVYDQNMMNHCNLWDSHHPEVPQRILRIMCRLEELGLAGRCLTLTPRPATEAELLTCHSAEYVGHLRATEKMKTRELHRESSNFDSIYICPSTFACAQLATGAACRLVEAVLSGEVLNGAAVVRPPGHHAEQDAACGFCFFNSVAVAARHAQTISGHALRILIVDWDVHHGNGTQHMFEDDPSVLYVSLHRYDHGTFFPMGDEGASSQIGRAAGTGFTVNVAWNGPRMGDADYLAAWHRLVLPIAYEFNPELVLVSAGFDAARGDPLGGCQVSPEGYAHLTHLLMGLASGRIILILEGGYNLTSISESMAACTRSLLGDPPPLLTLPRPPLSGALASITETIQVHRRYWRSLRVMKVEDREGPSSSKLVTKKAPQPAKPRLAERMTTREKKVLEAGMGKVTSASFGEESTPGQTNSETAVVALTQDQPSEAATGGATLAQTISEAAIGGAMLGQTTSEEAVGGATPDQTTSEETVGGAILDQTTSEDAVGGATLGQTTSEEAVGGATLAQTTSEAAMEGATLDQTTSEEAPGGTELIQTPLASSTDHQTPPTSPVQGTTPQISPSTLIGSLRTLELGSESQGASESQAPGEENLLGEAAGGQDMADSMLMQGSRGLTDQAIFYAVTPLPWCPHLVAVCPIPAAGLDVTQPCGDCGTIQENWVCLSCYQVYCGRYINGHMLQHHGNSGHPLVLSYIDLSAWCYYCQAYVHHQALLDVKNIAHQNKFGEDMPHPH
smiles,measurement,setting,value
"C[N+](C)(C)CCOP(=O)([O-])OCCCCCC1CCCCCCCCCCCCCC1 [Compound 19, 5-cyclopentadecylpentyl (2-(trimethylammonio)ethyl) phosphate]",CC50,"[1]; human monocytic cell line THP1, read-out: Cytotoxicity-Human Monocytic Cell Line THP1 CC50 ± SD",> 500 µM
same,% mitochondrial toxicity,"mitochondria; 10 μM, 100% mitotoxic, 0% not mitotoxic",−3.22 ± 5.44%
same,Ang % Toxicity Mitochondria,mitochondria; 10 μM,−3.22 ± 5.44 (10 μM) %
same,"average reduction of parasite burden, spleen",Leishmania infantum [2]; compound 19 2.5 mg/kg every other day for 21 days,98%
same,"parasite burden, spleen and liver","Leishmania infantum [2]; compound 19 every other day for 21 days, 20, 10, 5, 2.5 mg/kg, except 2.5 mg/kg in the spleen",maintained parasite burden under the detection limit
same,IC50,[3],15.5 ± 1.5 µM
same,average reduction of signal (average radiance) in the brain region,"T. b. brucei GVR35; 50 mg/kg daily for 13 days, compared to beginning of treatment (day 21)",99.96%
same,reduction of infection,"T. b. brucei GVR35; 50 mg/kg/day PO, 13 days",> 99%
same,signal in the region of the brain lost,"T. b. brucei GVR35; after 4 treatments (day 25), 50 mg/kg daily",99.95%
same,overall and brain infection,T. b. brucei GVR35; compound 19 50 mg/kg/day PO,able to significantly reduce the overall infection and also in the brain
same,effect on HDACr,HDAC8; 100 μM,not considered significant
same,"reduction of parasite burden, spleen",Leishmania infantum [4]; 2.5 mg/kg,91±6%
same,"reduction of parasite burden, spleen",Leishmania infantum [4]; 5 mg/kg,99±1%
same,parasite burden in the spleen,Leishmania infantum [4],able to maintain parasite burden below the detection limit
same,parasite load in the liver,"Leishmania infantum [4]; all treatments (20, 10, 5, 2.5 mg/kg)",maintained the parasite load under the detection limit
same,IC50,[5],24 ± 3.8 µM
same,IC50,[6],5.4 µM
same,Cmax in plasma relative to the EC50 for L. infantum in vitro,[7]; 20 mg/kg oral gavage,10 fold
same,AUC(0-inf),"[7]; BALB/c (Compound 19), NMRI (miltefosine), mouse, plasma, healthy mice, 20 mg/kg oral gavage, Table 10, read-out: AUC (0-∞)",967 ± 471 µg·h/mL
same,AUC(0-inf),"[7]; BALB/c (Compound 19), NMRI (miltefosine), mouse, plasma, healthy mice, 20 mg/kg oral gavage, Table 10, read-out: AUC (0-∞) (μM h/mL)",2090 µM·h
same,Cmax,"[7]; BALB/c (Compound 19), NMRI (miltefosine), mouse, plasma, healthy mice, 20 mg/kg oral gavage, Table 10, read-out: Cmax",33.4 µM
same,Cmax,"[7]; BALB/c (Compound 19), NMRI (miltefosine), mouse, plasma, healthy mice, 20 mg/kg oral gavage, Table 10, read-out: Cmax (μg/mL)",15.4 ± 9.3 µg/mL
same,half-life,"[7]; BALB/c (Compound 19), NMRI (miltefosine), mouse, plasma, healthy mice, 20 mg/kg oral gavage, Table 10, read-out: t1/2 (converted)",17.4 ± 4.2 h
same,Tmax,"[7]; BALB/c (Compound 19), NMRI (miltefosine), mouse, healthy mice, 20 mg/kg oral gavage, plasma, Table 10, read-out: tmax",24 h
same,Ke (h − 1),"[7]; healthy BALB/c mice, 20 mg/kg gavage, Table 13",0.049 h − 1
same,Ke,"[7]; healthy mice, 20 mg/kg oral gavage, Table 10",0.049 h⁻¹
same,AUC(0-inf),"[7]; mouse, plasma, po, healthy BALB/c mice, 20 mg/kg gavage, Table 13, read-out: AUC (0-∞)",967 ± 471 µg·h/mL
same,AUC(0-inf),"[7]; mouse, plasma, po, healthy BALB/c mice, 20 mg/kg gavage, Table 13, read-out: AUC (0-∞) (μM h/mL)",2090 µM·h
same,Cmax,"[7]; mouse, plasma, po, healthy BALB/c mice, 20 mg/kg gavage, Table 13, read-out: Cmax",33.4 µM
same,Cmax,"[7]; mouse, plasma, po, healthy BALB/c mice, 20 mg/kg gavage, Table 13, read-out: Cmax (μg/mL)",15.4 ± 9.3 µg/mL
same,Tmax,"[7]; mouse, plasma, po, healthy BALB/c mice, 20 mg/kg gavage, Table 13, read-out: tmax",24 h
same,half-life,"[7]; mouse, plasma, po, healthy BALB/c mice, 20 mg/kg gavage, Table 13, read-out: t½ (converted)",17.4 ± 4.2 h
same,inhibition at 10 µM,CYP2C19,-18.2 ± 7.01%
same,inhibition at 10 µM,"CYP2C9; human, mean ± SD, Table 4a",-17.5 ± 2.31%
same,solubility,"[8]; FaSSIF, pH 6.5, fassif, read-out: Solubility in FaSSIF (pH = 6.5)",> 100 µM
same,solubility,"[8]; FeSSIF, pH 5, fessif, read-out: Solubility in FeSSIF (pH = 5)",> 100 µM
same,solubility,"[8]; PBS, pH 7.4, aqueous buffer, read-out: Solubility in PBS (pH = 7.4)",< 10 µM
same,solubility,"[8]; simulated gastric fluid (SGF), simulated gastric fluid, SGF, pH 1.6, read-out: Solubility in SGF (pH = 1.6)",12.5 µM
same,solubility,"[8]; water, H2O, read-out: Solubility in H2O",< 10 µM
same,average weight loss at the end of the experiment,[9]; 50 mg/kg daily oral gavage,7±8%
same,day from which weight loss was significant,[9]; 100 mg/kg daily oral gavage,5 days
same,average weight loss at the end of the experiment,[9]; 100 mg/kg daily oral gavage,11±4%
same,MTD at 7 days,[9],100 mg/kg
same,inhibition at 10 µM,CYP3A4; [10],-17.6 ± 8.89%
same,inhibition at 10 µM,CYP3A4; [11],17.6 ± 8.89%
same,inhibition of the activity of HDAC6,HDAC6; 100 μM,does not inhibit
"CCCCCCCCCCCCCCCCOP(=O)([O-])OCC[N+](C)(C)C [Miltefosine, hexadecylphosphocholine, reference compound]",CC50,[1],28.6 ± 2.48 µM
same,Ang % Toxicity Mitochondria,mitochondria; 10 μM,3.99 ± 8.95 (10 μM) %
same,% mitochondrial toxicity,mitochondria; at 1 μM,3.39 ± 8.95%
same,"parasite burden reduction, liver","Leishmania infantum [2]; miltefosine 2.5 mg/kg, 21 consecutive days",98%
same,parasite burden in the spleen,"Leishmania infantum [2]; miltefosine 10 mg/kg, oral gavage, 21 consecutive days",one of the animals presented detected parasites in the spleen
same,parasite burden,"Leishmania infantum [2]; miltefosine 20 mg/kg, oral gavage, 21 consecutive days",maintained parasite burden under the detection limit
same,parasite burden in the liver,"Leishmania infantum [2]; miltefosine 20, 10, 5 mg/kg, 21 consecutive days",parasite burdens under the detection limit
same,"parasite burden reduction, spleen","Leishmania infantum [2]; miltefosine lower doses (5 and 2.5 mg/kg), 21 consecutive days",more than 99%
same,IC50,[3],43.7 ± 8.34 µM
same,infection outcome (words),"T. b. brucei GVR35; miltefosine treated animals, sacrificed after 7 treatments",no reduction in infection
same,weight loss associated to the treatment,T. b. brucei GVR35; miltefosine treated infected animals,constant weight loss
same,inhibition of the activity of HDAC8,HDAC8; 10 μM,did not inhibit
same,"reduction of parasite burden, spleen",Leishmania infantum [4]; 2.5 mg/kg,64±33%
same,"reduction of parasite burden, spleen",Leishmania infantum [4]; 5 mg/kg,70±36%
same,parasite burden in the spleen,Leishmania infantum [4],not able to maintain parasite burden under the detection limit
same,"average reduction of parasite load, spleen",Leishmania infantum [4]; 20 and 10 mg/kg,> 99%
same,"reduction of average parasite burden, liver",Leishmania infantum [4]; all tested concentrations,more than 98%
same,IC50,[5],12.7 ± 3.3 µM
same,IC50,[6],14.2 µM
same,AUC(0-inf),[7]; [12],2.4e+06 ng·h/mL and 5960 µM·h
same,Cmax,[7]; [12],30600 ng/mL and 75.1 µM
same,Tmax,[7]; [12],24 h
same,half-life,[7]; [12],43.3 ± 5.5 h
same,Ke (h − 1),"[7]; BALB/c, mouse, in vivo, 20 mg/kg",0.016 ± 0.002 h − 1
same,AUC(0-inf),[7]; [13],2.4e+06 ng·h/mL and 5960 µM·h
same,Cmax,[7]; [13],30600 ng/mL and 75.1 µM
same,Tmax,[7]; [13],24 h
same,half-life,[7]; [13],43.3 ± 5.5 h
same,inhibition at 10 µM,CYP2C19,7.92 ± 15.5%
same,Avg % inhibition CYP2C9,"CYP2C9; 10 μM, Table 5",−0.80 ± 38.33 (10 μM) %
same,% inhibition CYP2C9,"CYP2C9; 10 μM, mean ± SD, Table 4a",−0.8 ± 38.32%
same,solubility,"[8]; pH 1.6, simulated gastric fluid",12.5 µM
same,solubility,"[8]; pH 5, fessif",> 100 µM
same,solubility,"[8]; pH 6.5, fassif",> 100 µM
same,solubility,"[8]; pH 7.4, aqueous buffer",25 µM
same,solubility,[8]; water,25 µM
same,average weight loss at the end of the experiment,[9]; 50 mg/kg daily oral gavage,11±3%
same,food intake compared to the equivalent treatment of compound 19,[9]; 100 mg/kg,significant lesser food intake
same,day from which weight loss was significant,[9]; 100 mg/kg daily oral gavage,4 days
same,average weight loss at the end of the experiment,[9]; 100 mg/kg daily oral gavage,19±6%
same,MTD at 7 days,[9],50 mg/kg
same,inhibition at 10 µM,CYP3A4; [10],8.39 ± 8.99%
same,inhibition at 10 µM,CYP3A4; [11],8.39 ± 8.99%
same,inhibition of the activity of HDAC6,HDAC6; 10 μM,did not inhibit
